From US20140357512A1, “HISTONE DEACETYLASE (HDAC) BIOMARKERS IN MULTIPLE MYELOMA” (priority 2013, published 2014)

Tested on: human myeloma cell line MM.1S
Assay: SILAC acetylated-lysine peptide profiling, HDAC inhibitor vs DMSO (light/heavy ratio)
Format: cell-based
From the text: An embodiment of the invention comprises utilizing the SILAC method in order to quantitate changes in protein expression between two or more populations of cells. The SILAC method is a technique based on mass spectrometry that detects differences in protein abundance among samples using non-radioactive isotopic labeling. The SILAC method is known in the art, and described in detail in Ong et al., “Stable Isotope Labeling by Amino Acids in Cell Culture, SILAC, as a Simple and Accurate Approach to Expression Proteomics”, Molecular & Cellular Proteomics, vol. 1, pp. 376-386 (2002), which is incorporated herein by reference in its entirety.
Briefly, the SILAC method involves growing two populations of cells in cell culture. The first population of cells is grown in growth media containing normal amino acids (“normal media”). The second population of cells is grown in media lacking a standard essential amino acid (such as lysine), but is then supplemented with a non-radioactive, isotopically labeled form of that essential amino acid (such as lysine labeled with ^13C atoms, rather than normal ^12C atoms), which is called “heavy media”. When the two populations of cells are each growing in the medium, they incorporate the amino acids into all of their proteins. The growth of cells maintained in the heavy media is no different from that in normal media. All peptides containing the heavy amino acids are heavier than their normal counterparts. The cells from each of the two populations of cells are lysed. The lysates from each of the two cell populations are then combined. The combined cell lysates are then analyzed by mass spectrometry. Pairs of chemically identical peptides of different stable isotope composition can be differentiated in a mass spectrometer due to their difference in mass. The ratio of peak intensities in the mass spectrum for such peptide pairs reflects the abundance ratio for the two proteins.
This example describes SILAC studies that were performed to compare the effects of three different HDAC inhibitors (Compound A, Compound B, and tubastatin A) to a control on a human multiple myeloma cell line. The HDAC inhibitors were also compared amongst themselves to determine differences in their effects.
A human myeloma cell line MM.1S was grown using either ^12C (light) or ^13C (heavy) lysine containing culture medium. The “heavy” cells were treated with DMSO as the control, and the “light” cells were treated with a single HDAC inhibitor at 37° C. for 6 hours. The heavy and light cells were lysed, and the lysates were mixed in 1:1 ratio and digested with the protease trypsin. The acetylated lysine containing peptides (due to the action of the HDAC inhibitor) in the digested peptide pool were captured by a non-specific anti-acetylated lysine antibody cocktail (the antibodies identify both light and heavy acetylated peptides), and subjected to mass spectrometry analysis in order to identify thousands of individual peptides.
Thousands of peptides were identified in pairs (^12C and ^13C) due to their known mass differences. The amino acid sequence and quantitative ratio (Light/Heavy) of a given peptide in two differentially treated cell lysates were then determined and annotated with their possible protein (gene) sources.
As stated above, three HDAC inhibitors (Compound A, Compound B, and Tubastatin A) were used. Thus, the SILAC method was performed three times, with a different HDAC inhibitor compared to a control each time. Accordingly, there are three pairs of quantitative data in the table below, i.e., Compound A:DMSO, Compound B:DMSO, and Tubastatin A:DMSO. A cut-off of 1.30 fold of change (increase or decrease) was then used to determine “changed” or “+” in the table, and any peptides with a fold of change less than 1.3 fold were determined to be “unchanged” or “0” in the table. Those peptides that were not identified were marked as “NA” in the table. […]

O=C(NO)c1cnc(NC2(c3cccc(F)c3)CCCCC2)nc1 [Compound B, 2-((1-(3-fluorophenyl)cyclohexyl)amino)-N-hydroxypyrimidine-5-carboxamide]
L/H ratio of acetylated peptide PDPAK(ac)SAPAPK(ac)K (SEQ ID NO: 16) (HIST1H2BO [6:12], log 2 scale, drug vs DMSO): 0.66 | light to heavy ratio (L/H ratio) of acetylated peptide SLNLK(ac)HIK (SEQ ID NO: 607) (HLA-B associated transcript 1 [188], gene SNORD84, DDX39B, inhibitor:DMSO): 0.00 log 2 | L/H ratio of acetylated peptide K(ac)[…] (SEQ ID NO: 42) (HMGB2 [30], log 2 scale, drug vs DMSO): 0.00 | L/H ratio of acetylated peptide (HMVMQK(ac)LLR (SEQ ID NO: 438), Isoform 1 of Poly(U)-binding-splicing factor PUF60 [454], PUF60): 0.71 log 2 | L/H ratio of acetylated peptide RGEEGHDPK(ac)EPEQLR (SEQ ID NO: 43) (HNRNPA3 [29], log 2 scale, drug vs DMSO): 0.00 | L/H ratio of acetylated peptide […](ac)WQSLK (SEQ ID NO: 44) (HNRNPM [83], log 2 scale, drug vs DMSO): 0.00 | L/H ratio of acetylated peptide AAEVLNK(ac)HSLSGRPLK (SEQ ID NO: 3) (HNRNPM [134], log 2 scale, drug vs DMSO): −0.74 | L/H ratio of acetylated peptide VK(ac)VLFVR (SEQ ID NO: 45) (HNRNPR [341], log 2 scale, drug vs DMSO): 0.00 | L/H ratio of acetylated peptide […](ac)YSR (SEQ ID NO: 46) (HNRNPU [246], log 2 scale, drug vs DMSO): 0.00 | L/H ratio of acetylated peptide TTWVTK(ac)HAAENPGK (SEQ ID NO: 47) (HNRNPU [497], log 2 scale, drug vs DMSO): 0.00 | L/H ratio of acetylated peptide NK(ac)EIFLR (SEQ ID NO: 52) (HSP90B1 [97], log 2 scale, drug vs DMSO): 0.00 | L/H ratio of acetylated peptide […](ac)IR (SEQ ID NO: 49) (HSP90B1 [114], log 2 scale, drug vs DMSO): 0.00 | L/H ratio of acetylated peptide ETLQQHK(ac)LLK (SEQ ID NO: 50) (HSP90B1 [455], log 2 scale, drug vs DMSO): 0.00 | L/H ratio of acetylated peptide IADDK(ac)YNDTFWK (SEQ ID NO: 51) (HSP90B1 [479], log 2 scale, drug vs DMSO): 0.00 | L/H ratio of acetylated peptide […](ac)R (SEQ ID NO: 54) (HSPA5 [96], log 2 scale, drug vs DMSO): 0.00 | L/H ratio of acetylated peptide […](ac)R (SEQ ID NO: 55) (HSPA8 [71], log 2 scale, drug vs DMSO): 0.00 | L/H ratio of acetylated peptide (HSPEDPEK(ac)YSCFALFVK (SEQ ID NO: 432), Isoform 1 of DNA-dependent protein kinase catalytic subunit [700], PRKDC): −0.41 log 2 | L/H ratio of acetylated peptide (HTENVAK(ac)[…] (SEQ ID NO: 384), Transcriptional repressor CTCF [436], CTCF): −0.66 log 2 | light to heavy ratio (L/H ratio) of acetylated peptide […](ac)R (SEQ ID NO: 267) (Heat shock 70 kDa protein 1A/1B [71], HSPA1B, HSPA1A, drug:DMSO): 0.00 log 2 | light to heavy ratio (L/H ratio), log 2 scale, acetylated peptide TEMDWVLK(ac)[…] (SEQ ID NO: 797) (Heterogeneous nuclear ribonucleoprotein F [98], gene HNRNPF, drug:DMSO): 0.00 | light to heavy ratio (L/H ratio) of acetylated peptide YEK(ac)DIAAYR (SEQ ID NO: 595) (High mobility group protein B2 [157], gene HMGB2, inhibitor:DMSO): 0.00 log 2 | light to heavy ratio (L/H ratio), log 2 scale, acetylated peptide K(ac)AINK(ac)AQK (SEQ ID NO: 793) (Histone H2B type 1-M [17:21], gene HIST1H2BM, drug:DMSO): 0.00 | light to heavy ratio (L/H ratio) of acetylated peptide PEPAK(ac)SAPAPK(ac)K (SEQ ID NO: 309) (Histone H2B type 2-E [6:12], HIST2H2BE, drug:DMSO): 0.00 log 2 | light to heavy ratio (L/H ratio) of acetylated peptide K(ac)STGGK(ac)APR (SEQ ID NO: 310) (Histone H3.2 [10:15], HIST2H3D, HIST2H3A, HIST2H3C, drug:DMSO): 0.00 log 2 | light to heavy ratio (L/H ratio) of acetylated peptide GK(ac)GGK(ac)GLGK (SEQ ID NO: 311) (Histone H4 [6:9], HIST2H4B, HIST1H4C and other H4 genes, drug:DMSO): 0.00 log 2 | light to heavy ratio (L/H ratio) of acetylated peptide GLGK(ac)GGAK(ac)R (SEQ ID NO: 312) (Histone H4 [13:17], HIST2H4B, HIST1H4C and other H4 genes, drug:DMSO): 0.00 log 2 | light to heavy ratio (L/H ratio) of acetylated peptide GLGK(ac)GGAKR (SEQ ID NO: 313) (Histone H4 [13], HIST2H4B, HIST1H4C and other H4 genes, drug:DMSO): 0.00 log 2 | light to heavy ratio (L/H ratio) of acetylated peptide DGLQNEK(ac)NIVSTPVK (SEQ ID NO: 268) (Hydroxymethylglutaryl-CoA lyase mitochondrial [48], HMGCL, drug:DMSO): 0.00 log 2 | light to heavy ratio (L/H ratio) of acetylated peptide K(ac)[…] (SEQ ID NO: 594) (Hydroxymethylglutaryl-CoA lyase mitochondrial [137], gene HMGCL, inhibitor:DMSO): 0.00 log 2 | L/H ratio of acetylated peptide (IAVEAQNK(ac)YER (SEQ ID NO: 457), Nucleoprotein TPR [1081], TPR): 0.63 log 2 | L/H ratio of acetylated peptide (IDYGEYMDK(ac)NNVR (SEQ ID NO: 454), Single-stranded DNA-binding protein mitochondrial [122], SSBP1): −0.52 log 2 | light to heavy ratio (L/H ratio) of acetylated peptide, log 2 scale (IGK(ac)[…] (SEQ ID NO: 236), Thioredoxin domain-containing protein 5 [244], TXNDC5, MUTED, MUTED-TXNDC5): 0.00
